{"source": "paper PMC6395927", "about": "“Rufomycin Targets ClpC1 Proteolysis in Mycobacterium tuberculosis and M. abscessus” (Antimicrobial Agents and Chemotherapy, 2019)", "key": {"[1]": {"tested_on": "M. tuberculosis strain H37Rv (ATCC 27294)", "assay": "microbe, parasite or virus in culture", "type": "cell-based, Mycobacterium tuberculosis", "conditions": "Mycobacterium tuberculosis"}, "[2]": {"tested_on": "nonreplicating cultures of M. tuberculosis", "assay": "microbe, parasite or virus in culture", "type": "cell-based, Mycobacterium tuberculosis"}, "[3]": {"tested_on": "M. abscessus", "assay": "MBC against M. abscessus", "conditions": "Mycobacteroides abscessus", "protocol": "Parallel plates were processed as described for M. tuberculosis. The plates were incubated at 37°C for 5 days before CFU determination."}, "[4]": {"tested_on": "M. chelonae (ATCC 35752)", "assay": "microbe, parasite or virus in culture", "type": "cell-based, Mycobacterium chelonae", "conditions": "Mycobacteroides chelonae, ATCC35752; M. chelonae; read-out: MIC"}, "[5]": {"tested_on": "J774A.1 macrophage (ATCC TIB-67)", "assay": "Cytotoxicity in mammalian cells (resazurin)", "type": "cell-based, murine", "conditions": "Mus musculus, J774.A1; J774, 72 h"}, "[6]": {"tested_on": "M. avium (ATCC 15769)", "assay": "microbe, parasite or virus in culture", "type": "cell-based", "conditions": "Mycobacterium avium, ATCC15769; M. avium; read-out: MIC"}, "[7]": {"tested_on": "M. abscessus (ATCC 19977)", "assay": "microbe, parasite or virus in culture", "type": "cell-based, Mycobacterium abscessus", "conditions": "read-out: MIC"}, "[8]": {"tested_on": "M. tuberculosis", "assay": "microbe, parasite or virus in culture", "type": "cell-based, Mycobacterium tuberculosis"}}, "note": "Like-named read-outs stand apart in the source and are kept apart here.", "data": [{"smiles": "C/C=C/C[C@@H]1NC(=O)[C@H](CC(C)C)N2C(=O)C(C[C@H](C)[C@H]2O)N(C)C(=O)[C@H](C)NC(=O)[C@H](Cc2ccc(O)c([N+](=O)[O-])c2)NC(=O)[C@H](CC(C)C)N(C)C(=O)[C@H](Cc2cn(C(C)(C)C3CO3)c3ccccc23)NC1=O", "note": "(stereo partly shown) [RUFI, rufomycin I]", "values": [{"measurement": "MIC", "setting": "[1]", "result": 0.02, "unit": "µM"}, {"measurement": "MIC", "setting": "[1]; read-out: MIC against M. tuberculosis", "result": 0.01, "unit": "µM"}, {"measurement": "MBC", "setting": "[2]", "result": "lacks this activity"}, {"measurement": "MIC", "setting": "[2]; Mycobacterium tuberculosis", "result": "> 10", "unit": "µM"}, {"measurement": "inhibition at 10 µM", "setting": "[2]; Mycobacterium tuberculosis", "result": 75, "unit": "%"}, {"measurement": "MBC", "setting": "[3]", "result": 1.2, "unit": "µM"}, {"measurement": "MIC", "setting": "[4]", "result": 4.24, "unit": "µM"}, {"measurement": "IC50", "setting": "[5]", "result": 13, "unit": "µM"}, {"measurement": "MIC", "setting": "[6]", "result": 1.75, "unit": "µM"}, {"measurement": "MIC", "setting": "[7]; M. abscessus", "result": 0.42, "unit": "µM"}, {"measurement": "MIC", "setting": "[7]; Mycobacteroides abscessus, ATCC19977, M. abscessus", "result": 0.4, "unit": "µM"}, {"measurement": "MBC (minimum bactericidal concentration)", "setting": "[8]", "result": 0.40, "unit": "µM"}, {"measurement": "MBC", "setting": "[8]; Mycobacterium tuberculosis, read-out: MBC (minimum bactericidal concentration)", "result": 0.4, "unit": "µM"}]}]}
